In patent US4187245A, “Hydroxypropylene-amino-phosphonic-sulfonic acids” (Petrolite Corporation, priority 1978, dated 1980):
Where a name gives a salt, the structure may show the parent alone.

How the values were obtained:
[1] = Calcium Scale Inhibition Test; conditions: 180° F., samples at 2 and 4 hours
Method: Calcium Scale Inhibition Test
The procedure utilized to determine the effectiveness of scale inhibitors in regard to calcium scale is as follows:
Several 50 ml. samples of a 0.04 sodium bicarbonate solution are placed in 100 ml. bottles. To these solutions is added the inhibitor in various known concentrations. 50 ml. samples of a 0.02 M CaCl2 solution are then added.
A total hardness determination is then made on the 50--50 mixture utilizing the well known Schwarzenbach titration. The samples are placed in a water bath and heated at 180° F. 10 ml. samples are taken from each bottle at 2 and 4 hour periods. These samples are filtered through millipore filters and the total hardness of the filtrates are determined by titration. [formula]

[2] = prior-art background; cited from earlier work

SMILES | % Inhibition (Calcium Scale Inhibition) ([1]; 50 ppm) | % Inhibition (Calcium Scale Inhibition) ([1]; 25 ppm) | further results
NCCNCC(O)CS(=O)(=O)O (stereo not drawn) [Example 7] | 50% |  | 
O=S(=O)(O)CC(O)CNCCNCC(O)CS(=O)(=O)O (stereo not drawn) [Example 8] | 45% |  | 
NCCNCCNCC(O)CS(=O)(=O)O (stereo not drawn) [Example 9] | 45% |  | 
O=S(=O)(O)CC(O)CNCCNCCNCC(O)CS(=O)(=O)O (stereo not drawn) [Example 10] |  | 45% | 
O=P(O)(O)CN(CCN(CP(=O)(O)O)CP(=O)(O)O)CC(O)CS(=O)(=O)O (stereo not drawn) [Example 16] |  | 100% | % Inhibition (Calcium Scale Inhibition) ([1]; 10 ppm): 91%
O=P(O)(O)CN(CCN(CC(O)CS(=O)(=O)O)CP(=O)(O)O)CC(O)CS(=O)(=O)O (stereo not drawn) [Example 17] | 100% | 96% | % Inhibition (Calcium Scale Inhibition) ([1]; 15 ppm): 72%
O=P(O)(O)CN(CCN(CC(O)CS(=O)(=O)O)CP(=O)(O)O)CCN(CC(O)CS(=O)(=O)O)CP(=O)(O)O (stereo not drawn) [Example 19] | 100% | 86% | 
O=C(O)CN(CCN(CC(=O)O)CC(=O)O)CC(=O)O [ethylenediamine tetracetic acid salts] |  |  | threshold activities [2]: no threshold activities
